Measured values published in patent US6172112A, “Retinoids and use thereof” (priority 1999, dated 2001).
Where two headings read alike, the source gives them in different places.

Experiments:
RARα [1] = biological target: T1, RARα (Homo sapiens, UniProt P10276); experiment: nuclear receptor radiolabeled competition binding, RARα
T1 sequence (P10276 1-462): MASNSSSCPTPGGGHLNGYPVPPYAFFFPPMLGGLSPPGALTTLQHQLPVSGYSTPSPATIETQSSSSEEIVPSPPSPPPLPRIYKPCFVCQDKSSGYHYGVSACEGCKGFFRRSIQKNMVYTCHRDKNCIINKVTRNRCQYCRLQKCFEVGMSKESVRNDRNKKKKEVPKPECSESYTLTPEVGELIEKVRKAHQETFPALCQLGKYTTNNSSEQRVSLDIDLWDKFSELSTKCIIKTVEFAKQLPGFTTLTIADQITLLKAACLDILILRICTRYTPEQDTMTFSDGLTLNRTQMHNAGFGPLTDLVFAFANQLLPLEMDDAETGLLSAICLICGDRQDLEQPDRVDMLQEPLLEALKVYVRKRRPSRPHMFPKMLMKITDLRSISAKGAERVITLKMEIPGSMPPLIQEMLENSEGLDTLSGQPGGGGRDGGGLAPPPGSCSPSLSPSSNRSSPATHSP
Method: (§1) For active retinoids, IC50 values were determined by titration with varying concentrations of UAB retinoids.

RARβ = biological target: T2, RARβ (Homo sapiens, UniProt P10826); experiment: nuclear receptor radiolabeled competition binding, RARβ
T2 construct: expressed in transfected cells; host or cells: CV-1 cells
T2 sequence (P10826 1-455): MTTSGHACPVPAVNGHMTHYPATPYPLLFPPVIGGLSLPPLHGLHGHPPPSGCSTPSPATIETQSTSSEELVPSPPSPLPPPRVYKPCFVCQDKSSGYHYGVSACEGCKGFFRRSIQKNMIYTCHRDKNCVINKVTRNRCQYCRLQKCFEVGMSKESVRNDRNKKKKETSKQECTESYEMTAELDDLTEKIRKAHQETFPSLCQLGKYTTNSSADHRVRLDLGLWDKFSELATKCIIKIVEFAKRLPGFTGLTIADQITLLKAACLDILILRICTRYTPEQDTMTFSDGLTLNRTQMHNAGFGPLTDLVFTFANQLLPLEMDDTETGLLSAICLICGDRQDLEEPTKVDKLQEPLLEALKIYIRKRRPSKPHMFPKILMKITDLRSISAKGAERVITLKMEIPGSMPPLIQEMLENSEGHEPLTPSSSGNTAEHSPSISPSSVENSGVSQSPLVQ
Method: as §1

RARγ = biological target: T3, RARγ (Homo sapiens, UniProt P13631); experiment: nuclear receptor radiolabeled competition binding, RARγ
T3 sequence (P13631 1-454): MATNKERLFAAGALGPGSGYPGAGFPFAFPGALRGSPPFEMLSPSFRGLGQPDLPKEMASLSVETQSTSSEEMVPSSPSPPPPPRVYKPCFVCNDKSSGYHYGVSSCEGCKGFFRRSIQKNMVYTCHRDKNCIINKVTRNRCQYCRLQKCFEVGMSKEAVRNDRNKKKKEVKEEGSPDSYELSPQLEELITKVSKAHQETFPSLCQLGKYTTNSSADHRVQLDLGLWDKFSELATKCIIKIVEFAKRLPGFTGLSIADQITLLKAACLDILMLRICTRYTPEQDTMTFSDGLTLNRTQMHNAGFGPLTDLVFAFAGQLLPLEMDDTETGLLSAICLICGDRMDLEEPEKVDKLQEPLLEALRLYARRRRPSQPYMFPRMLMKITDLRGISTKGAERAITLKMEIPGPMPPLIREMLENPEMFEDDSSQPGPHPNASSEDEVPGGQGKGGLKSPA
Method: as §1

RXRα [2] = biological target: T4, RXRα (Homo sapiens, UniProt P19793); experiment: nuclear receptor radiolabeled competition binding, RXRα
T4 sequence (P19793 whole entry): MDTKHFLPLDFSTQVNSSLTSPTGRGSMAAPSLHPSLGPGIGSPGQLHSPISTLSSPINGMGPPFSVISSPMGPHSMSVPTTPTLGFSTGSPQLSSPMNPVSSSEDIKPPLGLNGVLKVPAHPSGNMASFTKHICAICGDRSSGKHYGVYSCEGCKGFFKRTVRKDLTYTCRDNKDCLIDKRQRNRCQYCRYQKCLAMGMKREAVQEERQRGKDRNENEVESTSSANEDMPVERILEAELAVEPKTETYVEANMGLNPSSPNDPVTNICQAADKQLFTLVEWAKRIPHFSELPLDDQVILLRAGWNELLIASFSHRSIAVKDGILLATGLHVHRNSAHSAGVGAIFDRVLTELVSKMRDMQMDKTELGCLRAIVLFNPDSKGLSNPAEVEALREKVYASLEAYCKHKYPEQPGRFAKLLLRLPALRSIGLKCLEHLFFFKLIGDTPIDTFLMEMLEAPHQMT
Method: as §1

RARα [3] = biological target: T1, RARα; experiment: cell-based
Method: (§2) These assays were performed in CV-1 cells with the RAR or RXR gene and the chloramphenicol acetyltransferase (CAT) reporter gene containing TREpal with a thymidine kinase promoter [(TREpal)2 -tk-CAT]. Twenty-four hours after transfection, cells were treated with a single dose of retinoid and the cell extracts were assayed for b-galactosidase and CAT activity. The antagonistic effects of UAB30 retinoids on the transcription of RAR-α were also determined in CV-1 cells. The methods are nearly identical to those used to perform transcriptional assays. These studies utilized the CAT reporter gene [(TREpal)2 -tk-CAT]. […] After 24 hours, cells were harvested and the transcriptional effects were measured in relative CAT activity, after correction with β-galactosidase activity for transfection efficiency. […] Experiments were performed in triplicate and the data were averaged.
UAB30 isomers were evaluated in assays which measures their functional activity within cells to induce RARα-, RARβ-, and RARγ-mediated transcriptional activity. CV-1 cells were transiently transfected with DNA plasmid from the appropriate RAR subtype and (TREpal)2 -tk-CAT (9, 19).

RXRα [4] = biological target: T4, RXRα; experiment: RXRα homodimer-mediated transcriptional activation in CV-1 cells; type: cell-based
Method: as §2

HL-60 cells = experiment: retinoid induction of differentiation of HL-60 cells (NBT); type: cell-based; conditions: Homo sapiens, HL-60, 96 h; 4-day induction of differentiation; read-out: ED50 (nM) HL-60
Method: (§3) Human leukemia cell line HL-60 and NB4 were used for measuring the ability of retinoids to induce terminal differentiation. Both cell lines are predominantly promyelocytes and are induced by retinoic acid to mature to cells with many characteristics of mature granulocytes. The induction of this differentiation is the basis for assaying one of the biological activities of retinoic acid analogues. For the differentiation assay, HL-60 or NB4 cells were grown in nutrient medium with fetal bovine serum as detailed by Breitman (15).
(§4) The percentage of cells that gained this marker was measured microscopically. The percentage of positive cells was then plotted as a function of the retinoid concentration to determine ED50 and ED30 values used in the formation of isoboles.

NB4 cells [5] = experiment: retinoid induction of differentiation of NB4 cells (NBT); type: cell-based, Human; conditions: read-out: ED30 NB4 cell differentiation
Method: NB4 cells were obtained from Dr. Waxman after he received them from Dr. M. Lanotte. […] The cell were grown at 37° C. in a humidified atmosphere of 5% CO2 in air. Cell density was estimated on an electronic particle counter (Coulter electronic, Hialeah, Fla.) and cell viability with trypan bleu dye exclusion.
as §3, §4

NB4 cells [6] = experiment: retinoid metabolism in NB4 cells; type: in vitro ADME
mouse skin papilloma [7] = conditions: ref (8); cited from earlier work
[8] = cited from earlier work
mouse skin papilloma [9] = experiment: mouse skin antipapilloma assay; conditions: 45.9 nmol dose
Method: The mouse skin antipapilloma assay measured the ED50 values for retinoid tumor inhibition on the dorsal skin of mice. The inhibition of mouse skin papilloma by retinoids was performed according to a modification of the procedure developed by Verma and Boutwell (14) as reported previously by Muccio et al. (8).
The UAB30 retinoids were evaluated next for their activity in preventing the chemical induction of papillomas on mouse skin (14).

JMML cells = experiment: inhibition of JMML spontaneous CFU-GM colony formation; conditions: Homo sapiens
Method: Mononuclear cells were separated by density gradient centrifugation, washed, and frozen in aliquots. […] No growth factors or other exogenous stimuli were added to the cultures. UAB retinoids and retinoic acid isomers were dissolved in either 100% ethanol or DMSO. Appropriate dilutions were made, and controls using the respective ethanol or DMSO concentration were set up in parallel. Varying doses of retinoids were added only once, 24 hours after initiation of the soft agar assays, by pipetting the retinoid solution on top of the soft agar and allowing the solution to enter the agar and interact with the cells by diffusion. The cultures were incubated for 14 days at 37° C. in a humidified atmosphere with 5% CO2.

CCC1=C(C(C)C)/C(=C/C(C)=C/C=C/C(C)=C/C(=O)O)CCC1 [(all-E)-UAB8]
IC50 (RARα [1]): 14 nM
IC50 (RARβ): 6 nM
IC50 (RARγ): 10 nM
IC50 (RXRα [2]): > 2000 nM
EC50 (RARα [3]): 33 nM
EC50 (RXRα [4]): > 2000 nM
EC50 (HL-60 cells): > 10000 nM
EC30 (NB4 cells [5]; in combination with 9-cis-UAB8 (FIG. 8B)): 25 nM
EC30 (NB4 cells [5]; retinoid alone, 3 days): 110 nM
metabolism / metabolic stability (NB4 cells [6]): metabolized at the same rate as ATRA
ED50 skin antipapilloma assay (mouse skin papilloma [7]): 2.5 nmol
in vivo toxicity [8]: less toxic than ATRA
prevention of papilloma (tumor) formation (mouse skin papilloma [9]): 99%
inhibition at 1 µM (JMML cells; read-out: normalized percent inhibition of CFU-GM colony growth, patient J43 (%)): 98%
inhibition at 1 µM (JMML cells; read-out: normalized percent inhibition of CFU-GM colony growth, patient J84 (%)): 103%
